Data from publication PMC5680178, “D-Cateslytin, a new antimicrobial peptide with therapeutic potential” (Scientific Reports, 2017).
Values after ≈ are worked out from the molar mass of the structure shown. Where two headings read alike, the source gives them in different places. Non-standard residues stand in square brackets, D forms with d. Residues, ends and D or L forms follow the SMILES beside them. No end group written: not given here.

Columns and labels:
[1] = tested on: Fusobacterium nucleatum (ATCC 49256); conditions: for FICI: sum of both FICs; for MIC (MIC alone): ATCC 49256, 24 h
Protocol: (§5) According to the European Committee on Antimicrobial Susceptibility Testing[20], the effect of a combination between two antibacterial compounds can be evaluated by their FICI (Fractional Inhibitory Concentration Index). The FICI consists of the sum of the FICs of both antibacterial agents: FIC index = FICantimicrobial + FICD-Ctl. For each compound, the FIC was determined as the ratio between the MIC of the compound in combination (MICcombination) and the MIC of the compound acting alone (MICalone). On the basis of their FIC index, each combination was categorized as synergistic (≤0.5), additive (>0.5 to 1), indifferent (>1 to <4) or antagonistic (≥4).
(§6) Microorganisms were cultured according to the manufacturer’s or the owner’s instructions in their respective media: Luria Bertani broth (Sigma) was used for E. coli strains, Mueller Hinton broth (Difco) for S. aureus strains and Anaerobe Basal broth (Oxoid) for F. nucleatum, P. intermedia and P. micra.
(§7) The MIC was determined by broth microdilution. An overnight culture of each bacterial strain was diluted (approximately to OD600 = 0,001) and microorganisms were plated in 96-well plates in the presence of different concentrations of antimicrobials, D-Ctl or L-Ctl alone or in combination. Three technical replicates were performed for each condition. After 24 hours of incubation, the microorganism growth was assessed by optical density OD600 using a Multiskan™ EX microplate spectrophotometer (Thermo Fisher Scientific). […] Each experiment was performed with at least three biological replicates.

[2] = tested on: Prevotella intermedia (ATCC 49046); conditions: for FICI: sum of both FICs; for MIC (MIC alone): ATCC 49046, 24 h
Protocol: as §5, §6, §7

[3] = tested on: Parvimonas micra (ATCC 33270); conditions: for FIC: MICcombination/MICalone; for FICI: sum of both FICs; for MIC (MIC alone): broth microdilution, Anaerobe Basal broth, 24 h, OD600, 100% inhibition, modified Gompertz function, biological replicates
Protocol: as §5, §6, §7

[4] = tested on: Fusobacterium nucleatum (ATCC 49256); test: microbe, parasite or virus in culture; conditions: ATCC49256, 24 h, read-out: MIC (MIC alone)
Protocol: as §5, §6, §7

[5] = tested on: Prevotella intermedia (ATCC 49046); test: microbe, parasite or virus in culture; conditions: ATCC49046, 24 h, read-out: MIC (MIC alone)
Protocol: as §5, §6, §7

[6] = tested on: Parvimonas micra (ATCC 33270); test: microbe, parasite or virus in culture; conditions: ATCC33270, 24 h, read-out: MIC (MIC alone)
Protocol: as §5, §6, §7

[7] = tested on: Escherichia coli (ATCC 25922); test: microbe, parasite or virus in culture; format: cell-based
Protocol: (§1) The MIC was determined by broth microdilution. […] Three technical replicates were performed for each condition.

[8] = tested on: E. coli (ATCC 25922) wild type; conditions: cultured with ½ MIC of the agent, diluted daily, for 24 days; value at day 24; three technical replicates
Protocol: An E. coli (ATCC® 25922™) culture was sequentially diluted every day in the presence of the different antibacterial compounds: D-Ctl, ampicillin or cefotaxime at ½ MIC during 24 days. The changes in the MICs values were determined as previously described by broth microdilution at the indicated times. The experiment was performed with three technical replicates.

[9] = tested on: Escherichia coli (MDR) (K-12); conditions: for FIC: MICcombination/MICalone; for FICI: sum of both FICs; for MIC (MIC alone): broth microdilution, Luria Bertani broth, 24 h, OD600, lowest concentration inhibiting 100% of inoculum, modified Gompertz function, biological replicates
Protocol: as §5, §6, §7

[10] = tested on: Escherichia coli (MDR) (K-12); test: microbe, parasite or virus in culture; conditions: 24 h, read-out: MIC (MIC alone)
Protocol: as §5, §6, §7

[11] = tested on: Staphylococcus aureus (MSSA) (ATCC 25923); test: microbe, parasite or virus in culture; conditions: for FIC: MICcombination/MICalone; for FICI: sum of both FICs
Protocol: as §1

[12] = tested on: secreted proteases from E. coli MDR; conditions: 400 μL filtered culture supernatant of E. coli MDR, 37 °C, 24 hours; RP-HPLC C18, 214 nm, versus peptide in water
Protocol: (§2) Bacterial supernatant was prepared as follows: a single colony of each strain was resuspended in 5 mL of culture medium as indicated above and incubated at 37 °C overnight. The culture was then centrifuged at 10000 g for 1 min and the supernatant was filtered using a […] MillexH-GV (Millipore, Carrigtwohill, Ireland). An aliquot of each supernatant was incubated at 37 °C for 48 hours. Absence of growth was interpreted as lack of viable microorganism. 400 μL of supernatant was then incubated with or without each peptide of interest at 37 °C for 24 hours. As a control, each peptide was incubated in water at 37 °C for 24 hours. Samples were then separated using a Dionex HPLC system (Ultimate 3000; Sunnyvale, CA USA) on a Nucleosil reverse-phase 300–5C18-column ([…]; particle size: […]; porosity, 300 Å) (Macherey Nagel, Hoerdt, France). Absorbance was monitored at 214 nm and the solvent system consisted of 0.1% (v/v) TFA in water (solvent A) and 0.09% (v/v) TFA in 70% (v/v) acetonitrile-water (solvent B). Elution was performed at a flow rate of […] with a gradient of solvent B as indicated on the chromatograms.

[13] = tested on: secreted proteases from E. coli wild type; conditions: 400 μL filtered culture supernatant of E. coli wild type, 37 °C, 24 hours; RP-HPLC C18, 214 nm, versus peptide in water
Protocol: as §2

[14] = tested on: secreted proteases from F. nucleatum; conditions: 400 μL filtered culture supernatant of F. nucleatum, 37 °C, 24 hours; RP-HPLC C18, 214 nm, versus peptide in water
Protocol: as §2

[15] = tested on: secreted proteases from P. intermedia; conditions: 400 μL filtered culture supernatant of P. intermedia, 37 °C, 24 hours; RP-HPLC C18, 214 nm, versus peptide in water
Protocol: as §2

[16] = tested on: secreted proteases from P. micra; conditions: 400 μL filtered culture supernatant of P. micra, 37 °C, 24 hours; RP-HPLC C18, 214 nm, versus peptide in water
Protocol: as §2

[17] = tested on: secreted proteases from S. aureus methicillin resistant (MRSA); conditions: 400 μL filtered culture supernatant of MRSA, 37 °C, 24 hours; RP-HPLC C18, 214 nm, versus peptide in water
Protocol: as §2

[18] = tested on: secreted proteases from S. aureus methicillin sensitive (MSSA); conditions: 400 μL filtered culture supernatant of MSSA, 37 °C, 24 hours; RP-HPLC C18, 214 nm, versus peptide in water
Protocol: as §2

[19] = tested on: Staphylococcus aureus (MRSA) (S1); conditions: for FIC: MICcombination/MICalone; for FICI: sum of both FICs
Protocol: as §5, §6, §7

[20] = tested on: Staphylococcus aureus (MRSA) (S1); test: microbe, parasite or virus in culture; conditions: 24 h, read-out: MIC (MIC alone)
Protocol: as §5, §6, §7

[21] = tested on: epithelial cells, smooth muscle cells and T cells; conditions: cited from earlier work
Source text: In the last decade, there have been a few HDPs entering clinical trials, specifically cathelicidins and defensins natural peptides or derivatives such as LL-37, MBI-226 (studies NCT00211523, NCT00211497 and NCT00027248 for the prevention of central venous catheter-related bloodstream infections and acne) and PMX-30063 (study NCT01211470 for acute bacterial skin and skin-structure infection). However, the clinical and commercial development of these peptide-based drugs has some limitations such as high cost of production, susceptibility to proteases and cytotoxicity. For example, the human cath ...

V8 = conditions: cited from earlier work
Source text: (§3) To this aim, different bacterial ...

aureolysin = conditions: cited from earlier work
Source text: as §3

[22] = tested on: secreted proteases from S. aureus methicillin resistant (MRSA); conditions: supernatant of MRSA, previous study; cited from earlier work
Source text: (§4) Linear L-peptides with α-helical structures are usually susceptible to proteolysis. […] The specific spatial configurations of the cleavage sites for these enzymes are not present in D-peptides although these peptides might be cleaved by non-specific hydrolysis during enzymatic digestion. Subsequently, we assessed the sensitivity of D-Ctl to secreted bacterial proteases by HPLC. To this aim, different bacterial ...

[23] = tested on: secreted proteases from S. aureus methicillin sensitive (MSSA); conditions: supernatant of MSSA, previous study; cited from earlier work
Source text: as §4

[24] = combination D-Ctl + amoxicillin, MICcombination/MICalone
[25] = combination D-Ctl + amoxicillin, category by FIC index
[26] = combination D-Ctl + amoxicillin
[27] = broth microdilution, Mueller Hinton broth, 24 h, OD600, 100% inhibition, modified Gompertz function, biological replicates
[28] = combination D-Ctl + methicillin

CC1(C)S[C@@H]2[C@H](NC(=O)[C@H](N)c3ccc(O)cc3)C(=O)N2[C@H]1C(=O)O [Amoxicillin]
FIC [1, 24]: 0.5
Effect [1, 25]: Additive
FICI [1, 26]: 1.0
FIC [2, 24]: 0.25
Effect [2, 25]: Synergistic
FICI [2, 26]: 0.5
FIC [3, 26]: 0.25
Effect [3, 25]: Synergistic
FICI [3, 26]: 0.5
MIC [4]: 0.6 µg/mL (≈ 1.64 µM)
MIC [5]: 0.5 µg/mL (≈ 1.37 µM)
MIC [6]: 0.5 µg/mL (≈ 1.37 µM)

CC1(C)S[C@@H]2[C@H](NC(=O)[C@H](N)c3ccccc3)C(=O)N2[C@H]1C(=O)O [Ampicillin]
MIC ([7]; Escherichia coli, ATCC25922, broth microdilution, Luria Bertani broth, 24 h, OD600, lowest concentration inhibiting 100% of inoculum, modified Gompertz function, biological replicates, read-out: MIC): 7 µg/mL (≈ 20 µM)
fold change in MIC under selective pressure [8]: 3 x MIC

CO/N=C(\C(=O)N[C@@H]1C(=O)N2C(C(=O)O)=C(COC(C)=O)CS[C@H]12)c1csc(N)n1 [Cefotaxime]
fold change in MIC under selective pressure [8]: 3 x MIC
FIC ([9]; combination D-Ctl + cefotaxime): 0.5
Effect ([9]; combination D-Ctl + cefotaxime, category by FIC index): Additive
FICI ([9]; combination D-Ctl + cefotaxime): 1.0
MIC [10]: 0.1 µg/mL (≈ 0.22 µM)

CSCC[C@@H](NC(=O)[C@@H](CO)NC(=O)[C@H](N)CCCNC(=N)N)C(=O)N[C@H](CCCNC(=N)N)C(=O)N[C@H](CC(C)C)C(=O)N[C@H](CO)C(=O)N[C@H](Cc1ccccc1)C(=O)N[C@H](CCCNC(=N)N)C(=O)N[C@H](C)C(=O)N[C@H](CCCNC(=N)N)C(=O)NCC(=O)N[C@H](Cc1ccc(O)cc1)C(=O)NCC(=O)N[C@H](Cc1ccccc1)C(=O)N[C@H](CCCNC(=N)N)C(=O)O [D-Ctl, D-Cateslytin] (H-[dR][dS][dM][dR][dL][dS][dF][dR][dA][dR]G[dY]G[dF][dR]-OH)
MIC ([7]; ATCC 25922, 24 h): 8.0 µg/mL (≈ 4.3 µM)
MIC (MIC alone) [11, 27]: 24 µg/mL (≈ 12.9 µM)
FIC [11, 28]: 0.5
FICI [11, 28]: 0.75
stability in bacterial supernatant [12]: not degraded
stability in bacterial supernatant [13]: not degraded
stability in bacterial supernatant [14]: not degraded
stability in bacterial supernatant [15]: not degraded
stability in bacterial supernatant [16]: not degraded
stability in bacterial supernatant [17]: not degraded
stability in bacterial supernatant [18]: not degraded
MIC (MIC alone) [9]: 8.4 µg/mL (≈ 4.52 µM)
FIC ([9]; combination D-Ctl + cefotaxime): 0.5
FICI ([9]; combination D-Ctl + cefotaxime): 1.0
MIC (MIC alone) [1]: 22 µg/mL (≈ 11.8 µM)
FICI [1, 26]: 1.0
MIC (MIC alone) [2]: 10 µg/mL (≈ 5.38 µM)
FICI [2, 26]: 0.5
MIC (MIC alone) [3]: 23 µg/mL (≈ 12.4 µM)
FIC [3, 26]: 0.25
FICI [3, 26]: 0.5
MIC (MIC alone) [19, 27]: 18 µg/mL (≈ 9.68 µM)
FIC ([19]; combination D-Ctl + vancomycin): 1
FICI ([19]; combination D-Ctl + vancomycin): 2

NC[C@H]1O[C@H](O[C@H]2[C@H](O)[C@@H](O[C@H]3O[C@H](CO)[C@@H](O)[C@H](N)[C@H]3O)[C@H](N)C[C@@H]2N)[C@H](O)[C@@H](O)[C@@H]1O [Kanamycin]
MIC ([7]; broth microdilution, Luria Bertani broth, 24 h, OD600, lowest concentration inhibiting 100% of inoculum, modified Gompertz function, biological replicates): 21.6 µg/mL (≈ 44.6 µM)

COc1cccc(OC)c1C(=O)N[C@@H]1C(=O)N2[C@@H]1SC(C)(C)[C@@H]2C(=O)O [Methicillin]
MIC ([11]; Staphylococcus aureus, 24 h, read-out: MIC (MIC alone)): 1.2 µg/mL (≈ 3.15 µM)
FIC [11, 28]: 0.25
MIC combination ([11]; combination D-Ctl + methicillin, broth microdilution, at least in duplicate): 0.3 µg/mL
Effect ([11]; combination D-Ctl + methicillin, category by FIC index): Additive
FICI [11, 28]: 0.75

CN[C@H](CC(C)C)C(=O)N[C@H]1C(=O)N[C@@H](CC(N)=O)C(=O)N[C@H]2C(=O)N[C@H]3C(=O)N[C@H](C(=O)N[C@H](C(=O)O)c4cc(O)cc(O)c4-c4cc3ccc4O)[C@H](O)c3ccc(c(Cl)c3)Oc3cc2cc(c3O[C@@H]2O[C@H](CO)[C@@H](O)[C@H](O)[C@H]2O[C@H]2C[C@](C)(N)[C@H](O)[C@H](C)O2)Oc2ccc(cc2Cl)[C@H]1O [Vancomycin]
FIC ([19]; combination D-Ctl + vancomycin): 1
Effect ([19]; combination D-Ctl + vancomycin, category by FIC index): Indifferent
FICI ([19]; combination D-Ctl + vancomycin): 2
MIC [20]: 0.8 µg/mL (≈ 0.552 µM)

LL-37: human cathelicidin host defence peptide
level at which apoptosis is enhanced [21]: above 10 µM
proteolysis by secreted S. aureus protease (V8): cleavage
proteolysis by secreted S. aureus protease (aureolysin): cleavage

RSMRLSFRARGYGFR [L-Ctl, L-Cateslytin]
MIC ([7]; ATCC 25922, 24 h): 75 µg/mL
stability in bacterial supernatant [12]: degraded
stability in bacterial supernatant [13]: degraded
stability in bacterial supernatant [14]: resistant to the degradation
stability in bacterial supernatant [15]: resistant to the degradation
stability in bacterial supernatant [16]: resistant to the degradation
MIC (MIC alone) [9]: 150 µg/mL
MIC (MIC alone) [1]: 125 µg/mL
MIC (MIC alone) [2]: 149 µg/mL
MIC (MIC alone) [3]: 120 µg/mL
stability in bacterial supernatant [22]: stable
stability in bacterial supernatant [23]: stable
